Reference: CN110693875A, “一种预防或治疗性功能障碍的药物组合物及其用途” (Chengdu Baiyu Pharmaceutical Co Ltd, priority 2018, dated 2020)

Columns and labels:
[1] = tested on: vascular ED rabbit model (血管性ED家兔模型); test: Test example 1: mating test in vascular ED rabbits; format: in vivo, New Zealand white rabbit; conditions: alprostadil alone, intracavernosal; for sexual activity parameters overall vs model group: once daily 1 week
[2] = tested on: aged rat ED model (老年性大鼠ED模型); test: Test example 2: apomorphine-induced erection and electrically evoked erection in aged rats; format: in vivo, SD rat; conditions: alprostadil alone, intracavernosal, 14 days
[3] = tested on: neurogenic ED rat model (神经性ED大鼠模型); test: Test example 3: mating behaviour in rats with cavernous nerve injury; format: in vivo, SD rat; conditions: alprostadil alone, intracavernosal, 14 days
ED patient (ED) = test: Clinical observation 1: ED patient, hypertension; format: in vivo, human; conditions: oral sildenafil 3 months, before the combination
[4] = tested on: patient with erectile dysfunction (勃起功能障碍); test: Clinical observation 2: patient with erectile dysfunction and premature ejaculation; format: in vivo, human; conditions: oral sildenafil 3 months, before the combination

Compound | observed parameters vs control group ([1]; high dose 5μg/kg) | sexual activity parameters overall vs model group ([1]; high dose 5μg/kg) | sexual activity parameters overall vs model group ([1]; low dose 0.05μg/kg) | sexual activity parameters overall vs model group ([2]; high dose 10μg/kg) | sexual activity parameters overall vs model group ([2]; low dose, printed 0.02μg/kg) | sexual activity parameters overall vs model group ([3]; high dose 10μg/kg) | sexual activity parameters overall vs model group ([3]; low dose 0.1μg/kg) | attempted intercourse with sufficient sexual stimulation (ED patient (ED)) | IIEF-5 score after sildenafil (ED patient (ED); baseline 4) | intercourse satisfaction [4] | overall satisfaction [4] | IIEF-5 score after sildenafil ([4]; baseline 12)
CCCCC[C@H](O)/C=C/[C@H]1[C@H](O)CC(=O)[C@@H]1CCCCCCC(=O)O [前列地尔, (1R,2R,3R)-3-羟基2-[(E)-(3S)-3-羟基-1-辛烯基]-5-氧代环戊烷庚酸] | 趋向于对照组 | 总体优于模型组 | 总体优于模型组 | 总体优于模型组 | 总体优于模型组 | 总体优于模型组 | 总体优于模型组 | – | – | – | – | –
CCCc1nn(C)c2c(=O)[nH]c(-c3cc(S(=O)(=O)N4CCN(C)CC4)ccc3OCC)nc12 [西地那非] | – | – | – | – | – | – | – | 尝试性交失败 | 5 | 未得到提高 | 略有下降 | 12
